pIC50: −log10 of the molar value.

The assay is described as follows: In vitro inhibitory activity against ADP-induced human platelet aggregation.
In the case of `CN1CCN(CCOc2ccc3c(=O)cc(N4CCOCC4)oc3c2)CC1` [7-[2-(4-Methyl-piperazin-1-yl)-ethoxy]-2-morpholin-4-yl-chromen-4-one], the pIC50 is 4.46.

For `Cc1c(OCCN2CCCCCC2)ccc2c(=O)cc(N3CCOCC3)oc12` [7-(2-Azepan-1-yl-ethoxy)-8-methyl-2-morpholin-4-yl-chromen-4-one], the negative-log IC50 (pIC50) was 5.52. Compared with the last compound, the pIC50 is 1.06 log units higher.

For `Cc1c(OCc2nnnn2-c2ccccc2)ccc2c(=O)cc(N3CCOCC3)oc12` [8-Methyl-2-morpholin-4-yl-7-(1-phenyl-1H-tetrazol-5-ylmethoxy)-chromen-4-one], the negative-log IC50 (pIC50) was 5.10.

`Cc1c(OCCN2CCNCC2)ccc2c(=O)cc(N3CCOCC3)oc12` [8-Methyl-2-morpholin-4-yl-7-(2-piperazin-1-yl-ethoxy)-chromen-4-one] gave a negative logarithm of the IC50 (pIC50) of 5.40.

Turning to `CCN(CCOc1ccc2c(=O)cc(N3CCOCC3)oc2c1C)c1ccccc1` [7-[2-(Ethyl-phenyl-amino)-ethoxy]-8-methyl-2-morpholin-4-yl-chromen-4-one], the negative-log IC50 (pIC50) was 4.37.

`C=CCOc1ccc2c(=O)cc(N3CCOCC3)oc2c1C` [7-Allyloxy-8-methyl-2-morpholin-4-yl-chromen-4-one] had a negative logarithm of the IC50 (pIC50) of 4.24.

Compound `Cc1c(OCCN2CCN(CCO)CC2)ccc2c(=O)cc(N3CCOCC3)oc12` [7-{2-[4-(2-Hydroxy-ethyl)-piperazin-1-yl]-ethoxy}-8-methyl-2-morpholin-4-yl-chromen-4-one] gave a negative logarithm of the IC50 (pIC50) of 4.92.

`C=Cc1c(OCCN2CCN(C)CC2)ccc2c(=O)cc(N3CCOCC3)oc12` [7-[2-(4-Methyl-piperazin-1-yl)-ethoxy]-2-morpholin-4-yl-8-vinyl-chromen-4-one] showed a pIC50 of 5.52.

Consider `Cc1c(OCc2ccccc2)ccc2c(=O)cc(N3CCOCC3)oc12` [7-Benzyloxy-8-methyl-2-morpholin-4-yl-chromen-4-one], for which the pIC50 was 4.40.

`COCCOc1ccc2c(=O)cc(N3CCOCC3)oc2c1C` [7-(2-Methoxy-ethoxy)-8-methyl-2-morpholin-4-yl-chromen-4-one] showed a negative-log IC50 (pIC50) of 5.15. Compared with the last compound, the pIC50 is 0.75 log units higher.

With `COC(=O)COc1ccc2c(=O)c(C)c(N3CCOCC3)oc2c1C` [(3,8-Dimethyl-2-morpholin-4-yl-4-oxo-4H-chromen-7-yloxy)-acetic acid methyl ester], the pIC50 was 4.23.

For `Cc1c(OCCN2CCCCC2)ccc2c(=O)cc(N3CCOCC3)oc12` [8-Methyl-2-morpholin-4-yl-7-(2-piperidin-1-yl-ethoxy)-chromen-4-one], the pIC50 was 5.30.

Compound `O=c1cc(N2CCOCC2)oc2cc(OCc3ccccn3)ccc12` [2-Morpholin-4-yl-7-(pyridin-2-ylmethoxy)-chromen-4-one] had a negative-log IC50 (pIC50) of 4.28.

Turning to `Cc1c(OCCN2CCCC2)ccc2c(=O)cc(N3CCOCC3)oc12` [8-Methyl-2-morpholin-4-yl-7-(2-pyrrolidin-1-yl-ethoxy)-chromen-4-one], the negative-log IC50 (pIC50) is 5.40.

In turn, `CCCc1c(OCCN2CCN(C)CC2)ccc2c(=O)cc(N3CCOCC3)oc12` [7-[2-(4-Methyl-piperazin-1-yl)-ethoxy]-2-morpholin-4-yl-8-propyl-chromen-4-one] showed a pIC50 of 4.16. Compared with the last compound, the pIC50 is 1.24 log units lower.

In turn, `COc1ccc2c(=O)cc(N3CCOCC3)oc2c1C` [7-Methoxy-8-methyl-2-morpholin-4-yl-chromen-4-one] had a pIC50 of 4.39.

`Cc1c(N2CCOCC2)oc2c(C)c(OCc3ccccc3)ccc2c1=O` [7-Benzyloxy-3,8-dimethyl-2-morpholin-4-yl-chromen-4-one] showed a pIC50 below 4.12.

On to `Cc1cc2c(=O)cc(N3CCOCC3)oc2c(C)c1OCCN1CCN(C)CC1` [6,8-Dimethyl-7-[2-(4-methyl-piperazin-1-yl)-ethoxy]-2-morpholin-4-yl-chromen-4-one], for which the pIC50 was 5.85.

In the case of `COC(=O)COc1ccc2c(=O)cc(N3CCOCC3)oc2c1C` [(8-Methyl-2-morpholin-4-yl-4-oxo-4H-chromen-7-yloxy)-acetic acid methyl ester], the pIC50 is 5.05.

As for `Cc1c(OCCN2CCN(C)CC2)ccc2c(=O)cc(N3CCOCC3)oc12` [7-[2-(4-methylpiperazin-1-yl)ethoxy]-8-methyl-2-morpholinyl chromone], the negative-log IC50 (pIC50) was 6.07.

`Cc1c(OCCN2CCSCC2)ccc2c(=O)cc(N3CCOCC3)oc12` [8-Methyl-2-morpholin-4-yl-7-(2-thiomorpholin-4-yl-ethoxy)-chromen-4-one]: the pIC50 was 5.37.

Take `COc1ccccc1COc1ccc2c(=O)cc(N3CCOCC3)oc2c1C` [7-(2-Methoxy-benzyloxy)-8-methyl-2-morpholin-4-yl-chromen-4-one]: the negative-log IC50 (pIC50) is 4.36.

In turn, `CC(=O)COc1ccc2c(=O)cc(N3CCOCC3)oc2c1C` [8-Methyl-2-morpholin-4-yl-7-(2-oxo-propoxy)-chromen-4-one] showed a pIC50 of 4.92.

On to `Cc1c(OCc2nnnn2C)ccc2c(=O)cc(N3CCOCC3)oc12` [8-Methyl-7-(1-methyl-1H-tetrazol-5-ylmethoxy)-2-morpholin-4-yl-chromen-4-one], for which the pIC50 was 5.55.

Take `O=c1cc(N2CCOCC2)oc2cc(OCc3cccc4ccccc34)ccc12` [2-Morpholin-4-yl-7-(naphthalen-1-ylmethoxy)-chromen-4-one]: the negative-log IC50 (pIC50) was 4.39.

`CCc1c(OCCN2CCN(C)CC2)ccc2c(=O)cc(N3CCOCC3)oc12` [8-Ethyl-7-[2-(4-methyl-piperazin-1-yl)-ethoxy]-2-morpholin-4-yl-chromen-4-one] had a pIC50 of 5.40.

In turn, `C=CCc1c(OCCN2CCN(C)CC2)ccc2c(=O)cc(N3CCOCC3)oc12` [8-Allyl-7-[2-(4-methyl-piperazin-1-yl)-ethoxy]-2-morpholin-4-yl-chromen-4-one] had a pIC50 of 5.05. Against the preceding compound, the pIC50 is 0.35 log units lower.

`COc1ccc(COc2ccc3c(=O)cc(N4CCOCC4)oc3c2C)cc1` [7-(4-Methoxy-benzyloxy)-8-methyl-2-morpholin-4-yl-chromen-4-one] showed a negative-log IC50 (pIC50) of 4.33.

As for `Cc1c(OCC(=O)c2ccccc2)ccc2c(=O)cc(N3CCOCC3)oc12` [8-Methyl-2-morpholin-4-yl-7-(2-oxo-2-phenyl-ethoxy)-chromen-4-one], the pIC50 is 4.37. This pIC50 and that of the compound before are within 0.2 log units of each other.

Take `Cc1c(OCc2ccc3ccccc3c2)ccc2c(=O)cc(N3CCOCC3)oc12` [8-Methyl-2-morpholin-4-yl-7-(naphthalen-2-ylmethoxy)-chromen-4-one]: the negative logarithm of the IC50 (pIC50) was 4.19.

The compound `CSCCOc1ccc2c(=O)cc(N3CCOCC3)oc2c1C` [8-Methyl-7-(2-methylsulfanyl-ethoxy)-2-morpholin-4-yl-chromen-4-one] had a pIC50 of 4.85.

Take `Cc1c(OCc2cccnc2)ccc2c(=O)cc(N3CCOCC3)oc12` [8-Methyl-2-morpholin-4-yl-7-(pyridin-3-ylmethoxy)-chromen-4-one]: the pIC50 was 5.40.

On to `Cc1c(OCCN2CCN(Cc3ccccc3)CC2)ccc2c(=O)cc(N3CCOCC3)oc12` [7-[2-(4-Benzyl-piperazin-1-yl)-ethoxy]-8-methyl-2-morpholin-4-yl-chromen-4-one], for which the negative logarithm of the IC50 (pIC50) is 4.96.

In turn, `Cc1c(OCc2nnnn2C2CCCCC2)ccc2c(=O)cc(N3CCOCC3)oc12` [7-(1-Cyclohexyl-1H-tetrazol-5-ylmethoxy)-8-methyl-2-morpholin-4-yl-chromen-4-one] gave a negative logarithm of the IC50 (pIC50) of 4.92.

As for `CCN(CCO)CCOc1ccc2c(=O)cc(N3CCOCC3)oc2c1C` [7-{2-[Ethyl-(2-hydroxy-ethyl)-amino]-ethoxy}-8-methyl-2-morpholin-4-yl-chromen-4-one], the pIC50 was 4.85.

On to `Cc1c(N2CCOCC2)oc2c(C)c(OCc3cccc4ccccc34)ccc2c1=O` [3,8-Dimethyl-2-morpholin-4-yl-7-(naphthalen-1-ylmethoxy)-chromen-4-one], for which the negative-log IC50 (pIC50) is below 4.12.

Regarding `CCN(CC)CCOc1ccc2c(=O)cc(N3CCOCC3)oc2c1C` [7-(2-Diethylamino-ethoxy)-8-methyl-2-morpholin-4-yl-chromen-4-one], the pIC50 was 5.59.

Compound `Cc1c(OCc2ccccn2)ccc2c(=O)cc(N3CCOCC3)oc12` [8-Methyl-2-morpholin-4-yl-7-(pyridin-2-ylmethoxy)-chromen-4-one] showed a negative-log IC50 (pIC50) of 4.72.

As for `Cc1c(OCc2cccc3ccccc23)ccc2c(=O)cc(N3CCOCC3)oc12` [8-Methyl-2-morpholin-4-yl-7-(naphthalen-1-ylmethoxy)-chromen-4-one], the negative-log IC50 (pIC50) was 4.89.

In the case of `Cc1c(OCCN2CCN(c3ccccc3)CC2)ccc2c(=O)cc(N3CCOCC3)oc12` [8-Methyl-2-morpholin-4-yl-7-[2-(4-phenyl-piperazin-1-yl)-ethoxy]-chromen-4-one], the pIC50 was below 4.12.

`Cc1c(OCc2nnnn2C(C)(C)C)ccc2c(=O)cc(N3CCOCC3)oc12` [7-(1-tert-Butyl-1H-tetrazol-5-ylmethoxy)-8-methyl-2-morpholin-4-yl-chromen-4-one] gave a pIC50 of 5.70.

(Values after BindingDB's records for doi:10.1021/jm00066a012 (Upjohn Laboratories, 1993).)
